Laboratory results: patent US20100093531A1 (priority 2007, published 2010)
Where two headings read alike, the source gives them in different places.

Experiments:
Phytophthora infestans [1] = experiment: microbe, parasite or virus in culture; type: cell-based; conditions: for Efficacy in % of the untreated control: individual active compound, microtiter test, day 7
Plasmopara viticola = experiment: Fungicidal control of grape downy mildew caused by Plasmopara viticola (greenhouse); type: in vivo; conditions: individual active compound
Description: (§1) Preparation: The spray solutions were prepared in several steps:
(§2) A stock solution was prepared: a mixture of acetone and/or DMSO and the wetting agent/emulsifier Uniperol, which is based on ethoxylated alkylphenoles, in a relation (volume) solvent-emulsifier of 99 to 1 was added to 25 mg of the compound to give a total of 10 ml. Water was then added to total volume of 100 ml.
(§3) This stock solution was diluted with the described solvent-emulsifier-water mixture to the given concentration.
Grape cuttings were grown in pots to the 4 to 5 leaf stage. These plants were sprayed to run-off with an aqueous suspension, containing the concentration of active ingredient or their mixture mentioned in the table below. The plants were allowed to air-dry. The next day they were inoculated with an aqueous spore suspension of Plasmopara viticola by spraying it at the lower leaf-side. Then the trial plants were immediately transferred for 24 h to a humid chamber with 22-24° C. and a relative humidity close to 100%. For a period of 5 days, cultivation followed in a greenhouse at 20-25° C. and a relative humidity about 50-80%. To stimulate the outbreak of the disease symptoms, the plants were transferred to a humid chamber again for 24 hours. Then the extent of fungal attack on the lower leaf surface was visually assessed as % diseased leaf area.
(§4) Evaluation was carried out analogously to example 1.

Phytophthora infestans [2] = type: in vivo; conditions: individual active compound, tomato, 6 days after inoculation
Septoria tritici = experiment: Activity against Septoria tritici in the microtiter test; type: cell-based; conditions: individual active compound, day 7
Phakopsora pachyrhizi = experiment: Curative control of soy bean rust on soy beans caused by Phakopsora pachyrhizi (greenhouse); type: in vivo; conditions: individual active compound, 14 days
Description: as §1, §2, §3
Leaves of pot-grown soy bean seedlings were inoculated with spores of Phakopsora pachyrhizi. To ensure the success the artificial inoculation, the plants were transferred to a humid chamber with a relative humidity of about 95% and 23 to 27° C. for 24 h. The next day the plants were sprayed to run-off with an aqueous suspension, containing the concentration of active ingredient as described below. The plants were allowed to air-dry. Then the trial plants were cultivated for 14 days in a greenhouse chamber at 23-27° C. and a relative humidity between 60 and 80%. The extent of fungal attack on the leaves was visually assessed as % diseased leaf area.
as §4

Botrytis cinerea = experiment: Preventative control of grey mold (Botrytis cinerea) on leaves of green pepper (greenhouse); type: in vivo; conditions: individual active compound, 5 days after inoculation
Description: as §1, §2, §3
Young seedlings of green pepper were grown in pots to the 2 to 3 leaf stage. These plants were sprayed to run-off with an aqueous suspension, containing the concentration of active ingredient or their mixture mentioned in the table below. The next day the treated plants were inoculated with a spore suspension of Botrytis cinerea in a 2% aqueous biomalt solution. Then the trial plants were immediately transferred to a dark, humid chamber. After 5 days at 22 to 24° C. and a relative humidity close to 100% the extent of fungal attack on the leaves was visually assessed as % diseased leaf area.
as §4

[3] = Phytophthora infestans, 168 h, read-out: Efficacy in % of the untreated control

With `C/C(=N\C#N)N(C)Cc1ccc(Cl)nc1` [Acetamipyrid] the “Efficacy in % of the untreated control” value (Phytophthora infestans [1]; 4 ppm) was 7%, the “Efficacy in % of the untreated control” value (Phytophthora infestans [1]; 16 ppm) was 9% and the “Efficacy in % of the untreated control” value (Plasmopara viticola; 16 ppm in the spray liquor) was 0%.

For `CCc1nc2ncnn2c(N)c1CCC(C)CC(C)(C)C` (stereo not drawn) [Tab. 1, # I-113, 5-ethyl-6-(3,5,5-trimethylhexyl)[1,2,4]triazolo[1,5-a]pyrimidin-7-ylamine], the inhibition of growth at 4 ppm (Phytophthora infestans [1]; [3]) was 11% and the “Efficacy in % of the untreated control” value (Phytophthora infestans [2]; 4 ppm in the spray liquor) was 22%.

In the case of `CC1(C)C(C=C(Cl)Cl)C1C(=O)OC(C#N)c1cccc(Oc2ccccc2)c1` (stereo not drawn) [alpha-Cypermethrin], the inhibition of growth at 4 ppm (Phytophthora infestans [1]; [3]) is reported as 7% and the inhibition of growth at 16 ppm (Phytophthora infestans [1]; [3]) is reported as 9%.

For `Cc1nc2ncnn2c(N)c1-c1ccc(Cl)c(Cl)c1` [Tab. 1, I-9, 6-(3,4-dichlorophenyl)-5-methyl-[1,2,4]triazolo[1,5-a]pyrimidin-7-ylamine], the inhibition of growth at 1 ppm (Phytophthora infestans [1]; [3]) was 64%, the “Efficacy in % of the untreated control” value (Plasmopara viticola; 4 ppm in the spray liquor) was 0% and the “Efficacy in % of the untreated control” value (Septoria tritici; 16 ppm) was 12%.

In the case of `CCNC(=NNc1c(Cl)cc(C(F)(F)F)cc1Cl)C1(C)CC1(Cl)Cl` (stereo not drawn) [A.23-1, N-R′-2,2-dihalo-1-R″cyclo-propanecarboxamide-2-(2,6-dichloro-α,α,α-fluoro-p-tolyl)hydrazone, wherein R′ is ethyl, halo is chloro, and R″ is methyl], the “Efficacy in % of the untreated control” value (Phakopsora pachyrhizi; 63 ppm in the spray liquor) is reported as 0%, the “Efficacy in % of the untreated control” value (Phytophthora infestans [1]; 1 ppm) is reported as 10% and the “Efficacy in % of the untreated control” value (Phytophthora infestans [1]; 4 ppm) is reported as 15%. The “Efficacy in % of the untreated control” value (Phytophthora infestans [1]; 16 ppm) was 15%.

For `CCCCCCCCc1c(COC)nc2ncnn2c1N` [Tab. 1, # I-245, 5-methoxymethyl-6-octyl-[1,2,4]triazolo[1,5-a]pyrimidin-7-ylamine], the “Efficacy in % of the untreated control” value (Phakopsora pachyrhizi; 4 ppm in the spray liquor) was 0%, the “Efficacy in % of the untreated control” value (Phakopsora pachyrhizi; 16 ppm in the spray liquor) was 0% and the inhibition of growth at 0.25 ppm (Phytophthora infestans [1]; [3]) was 10%. The “Efficacy in % of the untreated control” value (Septoria tritici; 16 ppm) was 4% and the “Efficacy in % of the untreated control” value (Phytophthora infestans [2]; 16 ppm in the spray liquor) was 0%.

`CN/C(=N\[N+](=O)[O-])NCc1cnc(Cl)s1` [Clothianidin] was tested, and the inhibition of growth at 1 ppm (Phytophthora infestans [1]; [3]) was 2%, the inhibition of growth at 4 ppm (Phytophthora infestans [1]; [3]) was 2% and the inhibition of growth at 16 ppm (Phytophthora infestans [1]; [3]) was 11%.

For `CC1(C)C(C=C(Cl)Cl)C1C(=O)OC(C#N)c1cccc(Oc2ccccc2)c1` (stereo not drawn) [α-Cypermethrin], the “Efficacy in % of the untreated control” value (Septoria tritici; 63 ppm) was 9%.

With `N#Cc1ccc(C/C(=N\NC(=O)Nc2ccc(OC(F)(F)F)cc2)c2cccc(C(F)(F)F)c2)cc1` [Metaflumizon] the “Efficacy in % of the untreated control” value (Phytophthora infestans [1]; 4 ppm) was 6%, the “Efficacy in % of the untreated control” value (Phytophthora infestans [1]; 16 ppm) was 12% and the “Efficacy in % of the untreated control” value (Plasmopara viticola; 16 ppm in the spray liquor) was 0%. For the same molecule, the “Efficacy in % of the untreated control” value (Septoria tritici; 63 ppm) was 0%.

`CNC(=O)Oc1cccc2c1OC(C)(C)C2` [Carbofuran, reference compound] was tested, and the “Efficacy in % of the untreated control” value (Phakopsora pachyrhizi; 16 ppm in the spray liquor) was 0%, the inhibition of growth at 1 ppm (Phytophthora infestans [1]; [3]) was 6% and the inhibition of growth at 4 ppm (Phytophthora infestans [1]; [3]) was 8%. For the same molecule, the inhibition of growth at 16 ppm (Phytophthora infestans [1]; [3]) was 12% and the “Efficacy in % of the untreated control” value (Phytophthora infestans [2]; 16 ppm in the spray liquor) was 0%.

`O=[N+]([O-])NC1=NCCN1Cc1ccc(Cl)nc1` [Imidacloprid, reference compound] showed an inhibition of growth at 1 ppm (Phytophthora infestans [1]; [3]) of 5%, an inhibition of growth at 4 ppm (Phytophthora infestans [1]; [3]) of 6% and an inhibition of growth at 16 ppm (Phytophthora infestans [1]; [3]) of 11%. For the same molecule, the “Efficacy in % of the untreated control” value (Phytophthora infestans [2]; 16 ppm in the spray liquor) was 22%.

With `CC1(C)C(C=C(Cl)Cl)C1C(=O)OC(C#N)c1cccc(Oc2ccccc2)c1` (stereo not drawn) [α-Cypermetrin] the “Efficacy in % of the untreated control” value (Plasmopara viticola; 63 ppm in the spray liquor) was 0%.

Molecule `CCCCCCCCc1c(CC)nc2ncnn2c1N` [Tab. 1, I-110, 5-ethyl-6-octyl-[1,2,4]triazolo[1,5-a]pyrimidin-7-ylamine] has an inhibition of growth at 1 ppm (Phytophthora infestans [1]; [3]) of 7%.

`N#Cc1nn(-c2c(Cl)cc(C(F)(F)F)cc2Cl)c(N)c1[S+]([O-])C(F)(F)F` (stereo not drawn) [Fipronil, reference compound] gave an inhibition of growth at 1 ppm (Phytophthora infestans [1]; [3]) of 1%, an inhibition of growth at 4 ppm (Phytophthora infestans [1]; [3]) of 16% and an inhibition of growth at 16 ppm (Phytophthora infestans [1]; [3]) of 20%. For the same molecule, the “Efficacy in % of the untreated control” value (Plasmopara viticola; 16 ppm in the spray liquor) was 0%, the “Efficacy in % of the untreated control” value (Phytophthora infestans [2]; 16 ppm in the spray liquor) was 0% and the “Efficacy in % of the untreated control” value (Phytophthora infestans [2]; 63 ppm in the spray liquor) was 0%. For the same molecule, the “Efficacy in % of the untreated control” value (Botrytis cinerea; 63 ppm in the spray liquor) was 10%.

In the case of `CCCCCCCCc1nc2ncnn2c(N)c1CC` [Tab. 1, # I-290, 6-ethyl-5-octyl-[1,2,4]triazolo[1,5-a]pyrimidin-7-ylamine], the “Efficacy in % of the untreated control” value (Plasmopara viticola; 4 ppm in the spray liquor) is reported as 0%, the “Efficacy in % of the untreated control” value (Plasmopara viticola; 16 ppm in the spray liquor) is reported as 56% and the “Efficacy in % of the untreated control” value (Botrytis cinerea; 16 ppm in the spray liquor) is reported as 0%.
